pIC50: −log10 of the molar value. Activity calls are given as the source filed them. The rule behind the calls is not given here.
Tests used:
[1] = molecular target: T1, Receptor tyrosine-protein kinase erbB-4 (Homo sapiens, UniProt Q15303); assay: Inhibition of recombinant human N-terminal GST-His6-fused erbB4 expressed in Sf9 insect cells at 10 uM using poly (Glu, Tyr) 4:1 as substrate after 60 mins in presence of [gamma-33P]-ATP by microplate scintillation counting method relative to control
[2] = molecular target: T2, Ephrin type-A receptor 3 (Homo sapiens) (UniProt P29320); assay: Inhibition of recombinant human N-terminal GST-His6-fused ephA3 expressed in Sf9 insect cells at 10 uM using poly (Glu, Tyr) 4:1 as substrate after 60 mins in presence of [gamma-33P]-ATP by microplate scintillation counting method relative to control
T2 sequence (whole entry): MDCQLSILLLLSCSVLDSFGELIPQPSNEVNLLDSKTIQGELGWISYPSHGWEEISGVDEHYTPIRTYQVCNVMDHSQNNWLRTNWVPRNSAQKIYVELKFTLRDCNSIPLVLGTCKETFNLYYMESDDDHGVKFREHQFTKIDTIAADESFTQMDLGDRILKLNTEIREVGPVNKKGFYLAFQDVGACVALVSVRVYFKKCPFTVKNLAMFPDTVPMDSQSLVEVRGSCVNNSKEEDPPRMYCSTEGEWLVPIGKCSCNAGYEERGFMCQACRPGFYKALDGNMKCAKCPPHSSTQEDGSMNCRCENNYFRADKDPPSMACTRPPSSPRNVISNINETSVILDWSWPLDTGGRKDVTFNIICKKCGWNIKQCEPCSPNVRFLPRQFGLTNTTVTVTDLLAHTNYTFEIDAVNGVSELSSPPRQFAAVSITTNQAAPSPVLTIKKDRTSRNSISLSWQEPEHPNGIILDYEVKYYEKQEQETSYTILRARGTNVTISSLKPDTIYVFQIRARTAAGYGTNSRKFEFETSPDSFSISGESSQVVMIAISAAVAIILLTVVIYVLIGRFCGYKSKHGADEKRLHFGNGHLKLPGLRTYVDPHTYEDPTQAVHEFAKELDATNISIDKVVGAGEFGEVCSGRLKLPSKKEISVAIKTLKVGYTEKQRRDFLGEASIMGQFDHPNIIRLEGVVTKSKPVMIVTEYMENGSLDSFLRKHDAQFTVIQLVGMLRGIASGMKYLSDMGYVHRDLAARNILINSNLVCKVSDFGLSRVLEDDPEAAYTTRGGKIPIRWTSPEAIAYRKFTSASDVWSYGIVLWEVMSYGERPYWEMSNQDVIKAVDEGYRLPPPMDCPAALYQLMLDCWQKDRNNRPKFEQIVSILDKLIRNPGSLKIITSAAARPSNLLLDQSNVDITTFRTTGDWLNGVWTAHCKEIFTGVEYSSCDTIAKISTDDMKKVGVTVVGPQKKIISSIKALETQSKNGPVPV

[3] = molecular target: T3, 3-phosphoinositide-dependent protein kinase 1 (Homo sapiens) (UniProt O15530); assay: Inhibition of recombinant human N-terminal His6-fused pdk1 expressed in Sf9 insect cells at 10 uM using tetra (LRRWSLG) as substrate after 60 mins in presence of [gamma-33P]-ATP by microplate scintillation counting method relative to control
T3 sequence (whole entry): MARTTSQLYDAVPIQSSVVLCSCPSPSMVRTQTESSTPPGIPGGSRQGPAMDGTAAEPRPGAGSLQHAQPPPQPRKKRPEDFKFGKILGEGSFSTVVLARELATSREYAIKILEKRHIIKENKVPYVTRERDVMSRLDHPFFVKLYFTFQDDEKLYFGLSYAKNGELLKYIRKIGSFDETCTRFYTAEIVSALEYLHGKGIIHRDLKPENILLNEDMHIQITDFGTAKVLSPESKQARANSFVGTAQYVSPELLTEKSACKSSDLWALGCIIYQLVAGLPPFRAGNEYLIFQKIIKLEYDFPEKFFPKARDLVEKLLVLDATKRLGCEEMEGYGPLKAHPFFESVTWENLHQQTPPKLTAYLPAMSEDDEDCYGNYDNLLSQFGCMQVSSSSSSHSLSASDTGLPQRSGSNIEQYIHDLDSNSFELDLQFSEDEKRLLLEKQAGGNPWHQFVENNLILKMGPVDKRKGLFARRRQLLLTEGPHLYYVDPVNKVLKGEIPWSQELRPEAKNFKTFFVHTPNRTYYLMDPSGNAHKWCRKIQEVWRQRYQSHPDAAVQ

[4] = molecular target: T1, Receptor tyrosine-protein kinase erbB-4; assay: Inhibition of recombinant human N-terminal GST-His6-fused erbB4 expressed in Sf9 insect cells using poly (Glu, Tyr) 4:1 as substrate after 60 mins in presence of [gamma-33P]-ATP by microplate scintillation counting method
[5] = molecular target: Receptor tyrosine-protein kinase erbB-2 (Homo sapiens, UniProt P04626); assay: Inhibition of recombinant human N-terminal GST-His6-fused erbB2 expressed in Sf9 insect cells using poly (Glu, Tyr) 4:1 as substrate after 60 mins in presence of [gamma-33P]-ATP by microplate scintillation counting method
Sequence of Receptor tyrosine-protein kinase erbB-2 (P04626 whole entry, the tested form may be a part): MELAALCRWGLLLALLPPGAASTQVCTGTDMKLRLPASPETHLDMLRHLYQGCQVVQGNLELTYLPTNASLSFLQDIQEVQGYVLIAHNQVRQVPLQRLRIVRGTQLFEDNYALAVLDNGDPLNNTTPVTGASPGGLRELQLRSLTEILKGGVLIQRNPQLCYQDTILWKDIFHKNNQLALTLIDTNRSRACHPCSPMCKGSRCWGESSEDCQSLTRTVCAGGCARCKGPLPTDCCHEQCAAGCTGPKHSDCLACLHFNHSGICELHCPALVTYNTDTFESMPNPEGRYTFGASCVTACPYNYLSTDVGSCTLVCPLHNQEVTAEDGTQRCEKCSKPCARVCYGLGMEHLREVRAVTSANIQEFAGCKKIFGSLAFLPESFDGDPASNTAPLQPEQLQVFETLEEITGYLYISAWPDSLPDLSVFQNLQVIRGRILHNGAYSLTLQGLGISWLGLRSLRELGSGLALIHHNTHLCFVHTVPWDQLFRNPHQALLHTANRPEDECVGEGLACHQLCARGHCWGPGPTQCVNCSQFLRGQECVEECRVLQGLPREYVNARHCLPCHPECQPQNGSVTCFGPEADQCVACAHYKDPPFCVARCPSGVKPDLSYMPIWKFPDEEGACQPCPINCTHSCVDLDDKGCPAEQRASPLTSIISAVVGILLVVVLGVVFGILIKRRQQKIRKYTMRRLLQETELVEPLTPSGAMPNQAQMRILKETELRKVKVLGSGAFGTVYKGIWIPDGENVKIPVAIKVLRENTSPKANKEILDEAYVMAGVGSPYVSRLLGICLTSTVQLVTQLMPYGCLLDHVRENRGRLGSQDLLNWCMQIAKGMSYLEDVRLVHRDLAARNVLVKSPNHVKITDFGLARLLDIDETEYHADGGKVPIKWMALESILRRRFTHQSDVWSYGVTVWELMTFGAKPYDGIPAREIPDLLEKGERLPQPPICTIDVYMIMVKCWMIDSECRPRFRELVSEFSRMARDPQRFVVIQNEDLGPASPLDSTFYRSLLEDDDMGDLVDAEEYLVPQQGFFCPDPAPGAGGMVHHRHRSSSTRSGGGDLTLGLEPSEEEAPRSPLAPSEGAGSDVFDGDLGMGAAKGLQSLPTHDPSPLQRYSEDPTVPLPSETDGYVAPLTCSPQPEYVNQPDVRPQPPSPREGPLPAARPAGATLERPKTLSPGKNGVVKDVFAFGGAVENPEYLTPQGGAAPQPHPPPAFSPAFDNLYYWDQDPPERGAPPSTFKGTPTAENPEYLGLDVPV

MCF7 [6] = assay: Cytotoxicity against human MCF7 cells after 24 hrs by MTT assay; type: functional, cell-based; details: MCF7, 24 h
MCF7 [7] = assay: Cell cycle arrest in human MCF7 cells assessed as accumulation at G2/M phase at 1 uM after 24 hrs by propidium iodide staining-based flow cytometric method; type: functional
MCF7 [8] = assay: Induction of cell death in human MCF7 cells assessed as appearance of sub-G0 hypodiploid nuclei at 1 uM after 24 hrs by propidium iodide staining-based flow cytometric method; type: functional

T1 sequence (Q15303 whole entry, the tested form may be a part): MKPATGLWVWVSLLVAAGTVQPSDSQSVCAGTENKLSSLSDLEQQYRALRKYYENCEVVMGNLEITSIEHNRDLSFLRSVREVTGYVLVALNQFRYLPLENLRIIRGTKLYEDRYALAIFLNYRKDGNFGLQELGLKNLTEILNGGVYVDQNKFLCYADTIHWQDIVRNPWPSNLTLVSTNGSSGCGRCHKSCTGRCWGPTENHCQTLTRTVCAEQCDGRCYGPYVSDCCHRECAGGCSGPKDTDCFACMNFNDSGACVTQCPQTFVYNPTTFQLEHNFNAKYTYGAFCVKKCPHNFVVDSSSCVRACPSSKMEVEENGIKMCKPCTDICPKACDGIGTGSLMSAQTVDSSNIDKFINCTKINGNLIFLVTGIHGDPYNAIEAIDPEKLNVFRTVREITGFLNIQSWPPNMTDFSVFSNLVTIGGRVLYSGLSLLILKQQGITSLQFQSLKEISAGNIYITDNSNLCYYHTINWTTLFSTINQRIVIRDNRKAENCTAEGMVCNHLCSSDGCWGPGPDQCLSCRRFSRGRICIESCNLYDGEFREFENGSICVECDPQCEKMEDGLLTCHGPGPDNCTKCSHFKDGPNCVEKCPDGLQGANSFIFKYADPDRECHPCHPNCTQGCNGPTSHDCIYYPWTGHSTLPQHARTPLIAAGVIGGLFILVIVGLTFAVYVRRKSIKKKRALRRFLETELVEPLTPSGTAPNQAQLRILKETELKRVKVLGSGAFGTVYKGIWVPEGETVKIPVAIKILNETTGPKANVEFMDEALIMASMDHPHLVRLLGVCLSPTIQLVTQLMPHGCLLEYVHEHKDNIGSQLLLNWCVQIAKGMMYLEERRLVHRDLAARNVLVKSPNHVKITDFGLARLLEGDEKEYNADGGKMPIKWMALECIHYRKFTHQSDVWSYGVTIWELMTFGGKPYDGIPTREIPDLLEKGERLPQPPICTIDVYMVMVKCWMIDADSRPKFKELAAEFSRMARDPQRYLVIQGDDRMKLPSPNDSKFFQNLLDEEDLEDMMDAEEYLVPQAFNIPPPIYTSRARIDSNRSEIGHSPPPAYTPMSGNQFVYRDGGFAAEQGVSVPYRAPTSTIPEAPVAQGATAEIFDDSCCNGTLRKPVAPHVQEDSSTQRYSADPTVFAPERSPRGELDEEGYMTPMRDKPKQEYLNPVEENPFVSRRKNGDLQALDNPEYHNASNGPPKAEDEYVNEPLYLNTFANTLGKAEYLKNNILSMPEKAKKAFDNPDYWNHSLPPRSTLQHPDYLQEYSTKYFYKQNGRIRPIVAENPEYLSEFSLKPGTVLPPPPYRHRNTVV

SMILES	inhibition [1] [%]	inhibition [2] [%]	inhibition [3] [%]	pIC50 [4]	pIC50 [5]	pIC50 (MCF7 [6])	Activity (MCF7 [7])	Activity (MCF7 [8])
O=S(=O)(NCCc1cccc(F)c1)c1cc(-c2cccnc2)cc(C(F)(F)F)c1	15.7	4.2						
O=S(=O)(NCCc1cccc(F)c1)c1cc(-c2ccc(-c3cccs3)s2)cc(C(F)(F)F)c1	57	22	40.3	5.09	4.50	5.04	Active	inactive
O=S(=O)(NCCc1cccc(F)c1)c1cc(-c2ccc(F)nc2)cc(C(F)(F)F)c1	7.5		10.3					
Cc1noc(C)c1-c1cc(C(F)(F)F)cc(S(=O)(=O)NCCc2cccc(F)c2)c1	9							
O=S(=O)(NCCc1cccc(F)c1)c1cc(-c2ccnc(F)c2)cc(C(F)(F)F)c1	18.4	9.1						
COc1cc(-c2cc(C(F)(F)F)cc(S(=O)(=O)NCCc3cccc(F)c3)c2)c(OC)nn1	14.9							
O=Cc1ccc(-c2cc(C(F)(F)F)cc(S(=O)(=O)NCCc3cccc(F)c3)c2)s1	22.2	7.8	5.2					
COC(=O)c1ccc(-c2cc(C(F)(F)F)cc(S(=O)(=O)NCCc3cccc(F)c3)c2)cn1	15.8							
O=S(=O)(NCCc1cccc(F)c1)c1cc(-c2cccc(S(=O)(=O)N3CCCC3)c2)cc(C(F)(F)F)c1	34.3		5.7					
COc1ncc(-c2cc(C(F)(F)F)cc(S(=O)(=O)NCCc3cccc(F)c3)c2)c(OC)n1	10.3							

Second part, led by results:

inhibition [1] [%]	inhibition [2] [%]	inhibition [3] [%]	pIC50 [4]	pIC50 [5]	SMILES	pIC50 (MCF7 [6])	Activity (MCF7 [7])	Activity (MCF7 [8])
57.9	32.8	35	5.19	4.98	O=S(=O)(NCCc1cccc(F)c1)c1cc(-c2cccc3c2Sc2ccccc2S3)cc(C(F)(F)F)c1	4.64		
12.8		27.6			COc1cc(-c2cc(C(F)(F)F)cc(S(=O)(=O)NCCc3cccc(F)c3)c2)ccc1F			
67.7	33.1	42.8	5.19	4.60	COCCc1ccc(OCc2ccc(-c3cc(C(F)(F)F)cc(S(=O)(=O)NCCc4cccc(F)c4)c3)cc2)cc1	4.35		
49	30.1	35.6			O=S(=O)(NCCc1cccc(F)c1)c1cc(-c2ccc(COc3cccc4ccccc34)cc2)cc(C(F)(F)F)c1			
50.5	11.1	2.4			O=S(=O)(NCCc1cccc(F)c1)c1cc(-c2cccc3c2oc2ccccc23)cc(C(F)(F)F)c1			
67.9	28.5	50.8	5.30	4.74	O=S(=O)(NCCc1cccc(F)c1)c1cc(-c2ccc(COc3cccc(C(F)(F)F)c3)cc2)cc(C(F)(F)F)c1	4.55		
63.1	30.4	52.7	5.36	5.01	O=S(=O)(NCCc1cccc(F)c1)c1cc(-c2ccccc2COc2cccc(C(F)(F)F)c2)cc(C(F)(F)F)c1	4.35		
19.1		40.5			COc1ccc(F)cc1-c1cc(C(F)(F)F)cc(S(=O)(=O)NCCc2cccc(F)c2)c1			
4.6	22.7	52.2			O=S(=O)(NCCc1cccc(F)c1)c1cc(-c2cc3ccccc3[nH]2)cc(C(F)(F)F)c1			
